Experimental data taken from the CheMixHub viscosity set.
“And” between values parts separate entries of the source, which are not always exact repeats. Equal values may be shown once.

Test: xn = mol fraction of the nth substance listed

CCCCCCCCCCCCCCCCCCCC + CCCCCCCCCCCCCCCC
viscosity [mPa·s], 101.3 kPa
Settings | x1 = 0.2 | x1 = 0.4 | x1 = 0.5 | x1 = 0.599 | x1 = 0.8
293.2 K | 3.875 | – | – | – | –
303.2 K | 3.045 | 3.481 | 3.77 | 4.065 | –
313.2 K | 2.459 | 2.785 | 3.011 | 3.223 | 3.602

CCCCOC(C)=O + CCCCCCCCCCCCCCCC
298.15 K, 101.3 kPa
Settings | viscosity [mPa·s]
x1 = 0.0797 | 2.778
x1 = 0.127 | 2.606
x1 = 0.2518 | 2.227
x1 = 0.3552 | 1.944
x1 = 0.4446 | 1.716
x1 = 0.5252 | 1.539
x1 = 0.5544 | 1.484
x1 = 0.594 | 1.39
x1 = 0.7165 | 1.149
x1 = 0.8169 | 0.9655
x1 = 0.8982 | 0.834
x1 = 0.952 | 0.7259

C=COC(C)=O + CCCCCCCCCCO
303.15 K, 101.33 kPa
Settings | viscosity [mPa·s]
x1 = 0.1013 | 6.774
x1 = 0.1998 | 4.804
x1 = 0.3007 | 3.437
x1 = 0.3991 | 2.488
x1 = 0.5006 | 1.793
x1 = 0.6004 | 1.31
x1 = 0.6957 | 0.952
x1 = 0.8003 | 0.682
x1 = 0.904 | 0.489

CCCN + CCCCCCCCCCO
viscosity [mPa·s], 101.33 kPa
Settings | x1 = 0.0915 | x1 = 0.1817 | x1 = 0.283 | x1 = 0.3906 | x1 = 0.4858 | x1 = 0.59 | x1 = 0.718 | x1 = 0.8181 | x1 = 0.9058
303.15 K | 7.465 | 6.249 | 5.036 | 3.906 | 3.037 | 2.211 | 1.384 | 0.8865 | 0.5706
313.15 K | 5.86 | 4.82 | 3.89 | 2.973 | 2.284 | 1.654 | 1.051 | 0.7052 | 0.481

C=COC(C)=O + CCCCCCCCO
303.15 K, 101.33 kPa
Settings | viscosity [mPa·s]
x1 = 0.1001 | 4.448
x1 = 0.2008 | 3.155
x1 = 0.3002 | 2.302
x1 = 0.4017 | 1.705
x1 = 0.4997 | 1.279
x1 = 0.6008 | 0.965
x1 = 0.6993 | 0.743
x1 = 0.7981 | 0.577
x1 = 0.8965 | 0.459

CCCCOC(C)=O + CCCCCCCCO
viscosity [mPa·s], 101 kPa
Settings | x2 = 0.085 | x2 = 0.1729 | x2 = 0.2638 | x2 = 0.3579 | x2 = 0.4554 | x2 = 0.5564 | x2 = 0.6611 | x2 = 0.7698 | x2 = 0.8827
298.15 K | 0.884 | 1.13 | – | 1.808 | 2.27 | 2.845 | 3.578 | 4.535 | 5.81
303.15 K | 0.813 | 1.03 | 1.298 | 1.623 | 2.017 | 2.505 | 3.119 | 3.918 | 4.98
308.15 K | 0.748 | 0.938 | 1.171 | 1.453 | 1.789 | 2.197 | 2.71 | 3.378 | 4.252
313.15 K | 0.689 | 0.855 | 1.059 | 1.305 | 1.591 | 1.938 | 2.372 | 2.932 | 3.66

CCCN + CCCCCCCCO
viscosity [mPa·s], 101.33 kPa
Settings | x1 = 0.1005 | x1 = 0.1898 | x1 = 0.3064 | x1 = 0.385 | x1 = 0.4834 | x1 = 0.5835 | x1 = 0.6813 | x1 = 0.7916 | x1 = 0.8908
303.15 K | 4.988 | 4.15 | 3.23 | 2.689 | 2.107 | 1.601 | 1.182 | 0.8056 | 0.5464
313.15 K | 3.651 | 3.052 | 2.37 | 1.976 | 1.563 | 1.203 | 0.9234 | 0.6649 | 0.4703

CCCCCCCC[N+](C)(C)CCOCCO.Cc1cc(Cl)ccc1OCC(=O)[O-] + CCCCCCCC[N+](C)(C)CCOCCO.COc1c(Cl)ccc(Cl)c1C(=O)[O-]
100 kPa, x1 = 0.58
Settings | viscosity
293.15 K | 12650 mPa·s and 12650 mPa·s
303.15 K | 4260 mPa·s
313.15 K | 1780 mPa·s
323.15 K | 831.5 mPa·s

CN1CCCN(C)C1=O + CCCCCCCCn1cc[n+](C)c1.[Cl-]
308.15 K, 100 kPa
Settings | viscosity [mPa·s]
x2 = 0.0999 | 7.275
x2 = 0.2997 | 61.15

CCCN + CCCCCCCO
viscosity [mPa·s], 101.33 kPa
Settings | x1 = 0.0918 | x1 = 0.1876 | x1 = 0.2917 | x1 = 0.3927 | x1 = 0.4818 | x1 = 0.6142 | x1 = 0.7167 | x1 = 0.7997 | x1 = 0.9056
303.15 K | 4.047 | 3.35 | 2.669 | 2.114 | 1.687 | 1.177 | 0.8748 | 0.678 | 0.4813
313.15 K | 3.046 | 2.522 | 2.023 | 1.593 | 1.28 | 0.9105 | 0.6933 | 0.5549 | 0.4105

CN1CCCN(C)C1=O + CCCCCCn1cc[n+](C)c1.[Cl-]
100 kPa
Settings | viscosity [mPa·s]
298.15 K, x2 = 0.3083 | 45.85
308.15 K, x2 = 0.3981 | 63.85

CCCCOC(C)=O + CCCCCO
viscosity [mPa·s], 101 kPa
Settings | x1 = 0.0963 | x1 = 0.2032 | x1 = 0.2987 | x1 = 0.4058 | x1 = 0.4868 | x1 = 0.5981 | x1 = 0.7048 | x1 = 0.7976 | x1 = 0.8954
298.15 K | 2.974 | 2.512 | 2.15 | 1.797 | 1.561 | 1.284 | 1.059 | 0.907 | 0.769
303.15 K | 2.593 | 2.191 | 1.886 | 1.573 | 1.37 | 1.14 | 0.963 | 0.846 | 0.723
308.15 K | 2.287 | 1.933 | 1.669 | 1.396 | 1.223 | 1.025 | 0.875 | 0.776 | 0.678
313.15 K | 2.018 | 1.714 | 1.483 | 1.261 | 1.107 | 0.941 | 0.809 | 0.717 | 0.639

CCCN + CCCCCO
viscosity [mPa·s], 101.33 kPa
Settings | x1 = 0.0915 | x1 = 0.1847 | x1 = 0.3069 | x1 = 0.4139 | x1 = 0.4894 | x1 = 0.581 | x1 = 0.7163 | x1 = 0.8117 | x1 = 0.9
303.15 K | 2.504 | 2.167 | 1.755 | 1.431 | 1.224 | 0.9914 | 0.7168 | 0.5615 | 0.4508
313.15 K | 2.066 | 1.79 | 1.437 | 1.176 | 1.003 | 0.8193 | 0.6111 | 0.488 | 0.3958

CCOC(=O)c1ccc(O)cc1 + CCCCCOC(C)=O
Settings | viscosity [mPa·s]
298.15 K, 101 kPa, x1 = 0.5 | 1.66

Oc1ccccc1Cl + CCCCCOC(C)=O
Settings | viscosity [mPa·s]
298.15 K, 101 kPa, x1 = 0.5 | 1.202

Oc1ccccc1Cl + CCCCN(CCCC)CCCC
298.16 K, 101 kPa
Settings | viscosity [mPa·s]
x1 = 0.5022 | 21.91
x1 = 0.5499 | 34.61
x1 = 0.6012 | 82.36
x1 = 0.6516 | 192.6
x1 = 0.7025 | 410.1
x1 = 0.7266 | 475.5
x1 = 0.7554 | 427.4
x1 = 0.7826 | 289.1
x1 = 0.8001 | 191.3
x1 = 0.812 | 134.4
x1 = 0.8523 | 63.53
x1 = 0.8708 | 39.93
x1 = 0.8974 | 19.56
x1 = 0.9113 | 9.963
x1 = 0.9432 | 4.507
x1 = 0.9687 | 2.537
x2 = 0.004631 | 2.323
